Assays:
[1] = tested on: MIN6 cells; test: Insulin secretion assay in MIN6 cells; type: cell-based, mouse; details: for effect on EGF-induced insulin secretion: pre-treatment, then 15 nM EGF for 1 min, butanols 0.4%, 10 min
Procedure: Cell Culture The mouse insulin-producing cells MIN6m9 provided by Dr. Susumu Seino (Division of Cellular and Molecular Medicine, Kobe University Graduate School of Medicine, Kobe, Japan) were used between passages 19 and 25 and cultured in DMEM containing 25 mM glucose, 10 mM HEPES, 10% (v/v) fetal calf serum, 50 IU/ml penicillin, and 50 μg/ml streptomycin at 37° C. in a humidified CO2-controlled (5%) incubator. MIN6 cells were transfected using LipofectAMINE, as described previously (Kim et al., J Immunol 163:5462-5470, 1999) Transfection efficiency is about 30-40% by using LipofectAMINE.
(§1) Insulin Secretion Assay: Batches of 10-15 isolated islets or 1×10^6 cells/well grown in 12- or 24-well plates were washed twice with KRB supplemented with 0.2% bovine serum albumin (BSA), and then incubated for 60 min at 37° C. in the KRB solution. We used same number of islets in a same set of experiment. At the end of incubation, the solutions were replaced with fresh KRB containing test reagents and incubated for the designated time. The incubation medium was sampled and centrifuged to remove cells, and the supernatant was assayed for insulin with a radioimmunoassay (RIA) kit (Linco, St. Louis, Mo.).
The MIN6 cells were plated onto 24-well plates and grown for 24 h. The cells were washed twice with KRB supplemented with 0.2% BSA, and then incubated for 60 min at 37° C. in the KRB solution.
The incubation medium was sampled and centrifuged to remove cells, and the supernatant was assayed for insulin levels. The data shown are the mean±S.D. from two independent assays by duplicate. *, P<0.05 compared with not treated (NT) cells.
The incubation medium was sampled and centrifuged to remove cells, and the supernatant was assayed for insulin levels. The data shown are the mean±S.D. from two independent assays by duplicate. *, P<0.05 compared with not treated cells.
The incubation medium was sampled and centrifuged to remove cells, and the supernatant was assayed for insulin levels. The data shown are the mean±S.D. from two independent assays by duplicate. * or **, P<0.05 compared with 2.7 or 11 mM glucose-treated cells.
The incubation medium was sampled and centrifuged to remove cells, and the supernatant was assayed for insulin levels.
In FIG. 3B, the MIN6 cells were plated onto 24-well plates and grown for 24 h. The cells were washed twice with KRB supplemented with 0.2% BSA, and then incubated for 60 min at 37° C. in the KRB solution. […] The incubation medium was sampled and centrifuged to remove cells, and the supernatant was assayed for insulin levels.

[2] = tested on: PLD; test: PLD activity assay in MIN6 cells (PBt formation); type: cell-based, mouse; details: for effect on EGF-induced PLD activity: 30 min pre-incubation, then 15 nM EGF for 1 min
Procedure: PLD Activity Assay in Cells: Cells grown in 6-well plates were washed twice with KRB, and then labeled with [3H]myristic acid for 4 h at 37° C. in the KRB solution. PLD activity was assayed by measuring the formation of phosphatidylbutanol (PBt) (Kim J H et al., J Immunol 163:5462-5470, 1999). The intensities of PBt spots in the presence of 0.4% 1-butanol were measured, and PLD activity was obtained by subtracting the corresponding intensities of spots obtained in the absence of 1-butanol.
In FIG. 3A, the MIN6 cells were plated onto 6-well plates and grown for 24 h. The cells were washed twice with KRB, and then incubated for 4 h at 37° C. in the KRB solution in the presence of [^3H]myristic acid. […] The data shown are the mean±S.D. from two independent assays by duplicate.
In FIG. 4A, the MIN6 cells were plated onto 6-well plates and grown for 24 h. The cells were washed twice with KRB, and then incubated for 4 h at 37° C. in the KRB solution in the presence of [^3H]myristic acid. […] The intensities of PBt spots after 1 min accumulation in the presence of 1-butanol were measured, and results were obtained by subtracting the corresponding intensities of spots obtained in the absence of 1-butanol. The data shown are the mean±S.D. from two independent assays by duplicate. *, P<0.05 compared with EGF-treated cells.

[3] = tested on: MIN6 cells; test: [Ca2+]i measurement in MIN6 cells (Fluo-3 AM, confocal microscope); type: cell-based, mouse
Procedure: Changes in intracellular Ca2+ levels were monitored using a Ca2+-sensitive dye under a confocal microscope. Cells were loaded with […] Fluo-3 AM for 40 min at room temperature. After washing with Krebs-Ringer bicarbonate (KRB; 129 mM NaCl, 5 mM NaHCO3, 4.8 mM KCl, 1.2 mM KH2PO4, 1.0 mM CaCl2, 1.2 mM MgSO4, 2.7 mM glucose, and 10 mM HEPES, pH 7.4) buffer, the cells were further incubated for 15 min in the absence of Fluo-3 AM to de-esterify the dye. To exclude the possible effects of dye loading, the present inventors normalized levels with saponin at the end of the experiments. To normalize, the present inventors measured the residual fluorescence (Fo) at the end of the experiment, and subtracted that from the fluorescence under experimental conditions (F). Excitation of Fluo-3 AM was performed at 488-nm by an argon laser, and the emission range was 515-nm. Images were captured on an inverted confocal microscope (Zeiss LSM 510 Meta, Oberkochen, Germany) with a 20× objective lens. The MIN6 cells were plated onto glass dishes or 24-well plates and grown for 24 h. The cells were washed twice with KRB supplemented with 0.2% BSA, and then incubated for 60 min at 37° C. in the KRB solution. In FIG. 2A, at the end of incubation, the solutions were replaced with fresh KRB containing Fluo-3 AM dissolved (1 mg/ml) in DMSO, and incubated for 1 h. […] Images were captured on an inverted confocal microscope with a 20× objective lens. To normalize, the present inventors measured the residual fluorescence (Fo) at the end of the experiment, and subtracted that from the fluorescence under experimental conditions (F). The data shown are the mean±S.E., n=7.

[4] = tested on: ICR mice; test: Plasma insulin levels in ICR mice after intravenous injection; type: in vivo, mouse; details: glucose 0.5 g/kg
Procedure: (§2) Measurement of Plasma Glucose and Plasma Insulin Levels: 7- to 8-week-old male ICR mice were purchased from Hyochang Science (Seoul, Korea). C57BLKSJ-db/db mice were purchased from SLC (Japan). […] Concentrations of plasma glucose were measured by the glucose oxidase method with a portable glucose meter (Gluco-Dr, Korea). Plasma was separated by centrifugation and the plasma insulin assay was performed using a RIA kit. Animal care was conducted in accordance with our institution's guidelines.

[5] = tested on: mouse pancreatic islets; test: Insulin secretion assay in mouse pancreatic islets; type: cell-based; details: 1 min treatment
Procedure: as §1
To prepare mouse pancreatic islets, pancreatic islets were isolated from 7- to 8-week-old male BALB/c mice (Hyochang Science, Korea), as described previously (Jonas J C, et al., Diabetes 47:1266-1273, 1998). Isolated islets were transferred onto a 12 well plate, with 10-15 islets per well. We used same number of islets in a same set of experiment. The islets were maintained for up to 2 days in RPMI1640 medium containing 5 mM glucose and 10% fetal calf serum, and supplemented with 100 µg/ml streptomycin and 100 U/ml penicillin.
The mouse pancreatic islets were plated onto 12-well plates and grown for 24 h. The islets were washed twice with KRB supplemented with 0.2% BSA, and then incubated for 60 min at 37° C. in the KRB solution. […]

[6] = tested on: RINm5F; test: Insulin release in RINm5F cell line (data not shown); type: cell-based
[7] = tested on: C57BLKSJ-db/db mice; test: Plasma glucose levels in obese db/db mice after intravenous injection; type: in vivo, mouse; details: EGF 50 μg/kg intravenous
Procedure: as §2

[8] = tested on: C57BLKSJ-db/db mice; test: Plasma insulin levels in obese db/db mice after intravenous injection; type: in vivo, mouse; details: EGF 50 μg/kg intravenous, 10 min after injection
Procedure: as §2
Plasma insulin levels before and 10 min after injection were compared. […] All animals had free access to water. Animal care was conducted in accordance with our institution's guidelines.

Compound: CCCCO [1-butanol, reference compound]
- effect on EGF-induced insulin secretion ([1]; MIN6 cells): inhibited

Compound: CC(=O)OCOC(=O)CN(CC(=O)OCOC(C)=O)c1ccccc1OCCOc1ccccc1N(CC(=O)OCOC(C)=O)CC(=O)OCOC(C)=O [BAPTA/AM, 1,2-Bis(2-aminophenoxy)ethane-N,N,N′,N′-tetraacetic acid tetrakis (acet-oxymethyl ester)]
- effect on EGF-induced PLD activity [2]: inhibited most of the PLD activity

Compound: O=C(O)CN(CCOCCOCCN(CC(=O)O)CC(=O)O)CC(=O)O [EGTA]
- effect on EGF-induced PLD activity [2]: inhibited most of the PLD activity
- effect on EGF-stimulated extracellular Ca2+ influx ([3]; 30 min pre-incubation, then 15 nM EGF): reduced

Compound: O=C[C@H](O)[C@@H](O)[C@H](O)[C@H](O)CO [glucose, reference compound]
- plasma insulin levels [4]: increased plasma insulin levels
- time required for Ca2+ influx ([3]; data not shown): 3 to 4 min

Compound: CC(C)(C)O [t-butanol, reference compound]
- effect on EGF-induced insulin secretion ([1]; MIN6 cells): but not by t-butanol treatment

Compound: Epidermal growth factor [EGF]
- insulin secretion ([5]; 15 nM EGF): rapidly increased insulin secretion
- specificity of the insulin secretion effect among growth factors ([5]; data not shown): specific among various growth factors
- plasma insulin levels [4]: increased plasma insulin levels
- time to PLD activation by EGF stimulation ([2]; 15 nM EGF): ≤ 2 min
- insulin levels at basal concentration of glucose ([1]; 2.7 mM glucose, 15 or 30 nM EGF, 5 min): increased insulin levels
- glucose-induced insulin release at high glucose levels ([1]; 11 mM glucose, 15 or 30 nM EGF, 5 min): additively increased glucose-induced insulin release
- effective time of EGF treatment for insulin secretion ([1]; MIN6 cells, 15 nM EGF): 1 to 2 min
- kinetics of stimulation of insulin secretion ([1]; MIN6 cells, 15 nM EGF compared with 11 mM glucose): kinetics more rapid than glucose
- effective concentration of EGF for insulin secretion ([1]; MIN6 cells, 1 min incubation): 1.5 to 15 nM
- insulin secretion ([1]; MIN6 cells, 1 min treatment): significantly increased insulin secretion
- insulin release [6]: could stimulate insulin release
- extracellular Ca2+ influx ([3]; MIN6 cells, 15 nM EGF): stimulated extracellular Ca2+ influx
- plasma glucose [7]: reduced plasma glucose
- plasma insulin levels [8]: increased plasma insulin levels
